Source: US20230123334A1, “AMINO LIPID COMPOUND, PREPARATION METHOD THEREFOR, AND APPLICATION THEREOF” (SHENZHEN SHENXIN BIOTECHNOLOGY CO., LTD., priority 2020, published 2023)

Assays:
HEK293 cells [1] = assay: Preliminary screening as mRNA vectors, EGFP mRNA transfection of HEK293 cells; assay type: cell-based; conditions: HEK293 cells, 96-well plates, EGFP mRNA 50 ng per well; percentage of GFP fluorescent cells relative to total number of cells (Hoechst)
How it was run: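 HEK293 cells in DMEM plus 10% FBS transfected in 96-well format with 50 ng EGFP mRNA per well; Lipofectamine2000 served as positive control. Read-out is the percentage of GFP-fluorescent cells among total cells, counted by Hoechst nuclear stain.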

HEK293 cells [2] = assay: Preliminary screening as DNA vectors, GFP transfection of HEK293 cells; assay type: cell-based; conditions: HEK293 cells; lipid/DOPE liposome with 75 ng plasmid DNA (psin-EGFP-IRES-Puro); number of cells expressing GFP divided by total number of nuclei (Hoechst)
How it was run: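 HEK293 cells in DMEM/10% FBS transfected with 75 ng EGFP plasmid per well complexed with amino lipid/DOPE liposomes in pH 5.6 sodium acetate. Hoechst nuclear stain added 20-24 h post-transfection, then cells cultured another 20-24 h. Confocal imaging gives GFP-positive cells as % of total nuclei.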

Row | Structure (SMILES) | Absolute mRNA transfection efficiency in HEK293 cells (HEK293 cells [1]) [%] | Absolute DNA transfection efficiency in HEK293 cells (HEK293 cells [2]) [%]
1 | CCCCCCCCCCCCSc1nc(NCCN2CCCCC2)nc(SCCCCCCCCCCCC)n1 [Compound S12S12D4] | 36.3 | 4.1
2 | CCCCCCCCCCCCNc1nc(NCCCCCCCCCCC)nc(NCCN2CCCC2)n1 [Compound N11N12D3] | 2.7 | 1.9
3 | CCCCCCCCCCCCCCCCCCNc1nc(NCCCCCCCC)nc(NCCN(C)C)n1 [Compound N8N18D1] | 6.4 | 1.8
4 | CCCCCCCCCCCCCCCCNc1nc(NCCCCCCCCCCCCCCCC)nc(NCCN(CC)CC)n1 [Compound N16N16D7] | 7.9 | 0.0
5 | CCCCCCCCNc1nc(NCCCCCCC)nc(NCCN(CC)CC)n1 [Compound N7N8D7] | 0.0 | 0.0
6 | CCCCCCCCCCCNc1nc(NN)nc(NCCCN2CCN(C)CC2)n1 [Compound N6N11D9] | 0.0 | 0.0
7 | CCCCCCNc1nc(NCCCCCC)nc(NCCCN(C)C)n1 [Compound N6N6D6] | 0.0 | 0.0
8 | CCCCCCCCCCCSc1nc(NCCCN2CCOCC2)nc(SCCCCCCCCCC)n1 [Compound S10S11D8] | 8.3 | 16.4
9 | CCCCCCCCCCCCCCSc1nc(NCCCN(C)C)nc(SCCCCCCCCCCCC)n1 [Compound S12S14D6] | 4.6 | 4.0
10 | CCCCCCCCCCCCCCCCNc1nc(NCCCCCCCCCCCC)nc(NCCN(CC)CC)n1 [Compound N12N16D7] | 0.3 | 0.4
11 | CCCCCCCCCCCCCCCCCCNc1nc(NCCCCCCCCCCCC)nc(NCCN(CC)CC)n1 [Compound N12N18D7] | 1.4 | 1.2
12 | CCCCCCCCCCCCCCSc1nc(NCCCN2CCN(C)CC2)nc(SCCCCCCCCCC)n1 [Compound S10S14D9] | 5.7 | 3.9
13 | CCCCCCCCCCCCCCSc1nc(NCCCN2CCOCC2)nc(SCCCCCCCC)n1 [Compound S8S14D8] | 3.4 | 17.1
14 | CCCCCCCCCCCCCCCCNc1nc(NCCCCCC)nc(NCCN2CCCC2)n1 [Compound N6N16D3] | 2.8 | 0.7
15 | CCCCCCCCCCCCCCCCSc1nc(NCCN2CCOCC2)nc(SCCCCCCCCCCCCCC)n1 [Compound S14S16D2] | 0.0 | 0.0
16 | CCCCCCCCCCCCCCCCNc1nc(NCCCCCCCCCCCCC)nc(NCCCN2CCOCC2)n1 [Compound N13N16D8] | 3.3 | 0.0
17 | CCCCCCCCCCCCNc1nc(NCCCCCC)nc(NCC2CCN(C)CC2)n1 [Compound N6N12D10] | 0.0 | 0.2
18 | CCCCCCCCCCCCCCCCCCNc1nc(NCCCCCCCCC)nc(NCC2CCN(C)CC2)n1 [Compound N9N18D10] | 1.9 | 2.6
19 | CCCCCCCCCCCCNc1nc(NCCCCCCC)nc(NCCN2CCN(C)CC2)n1 [Compound N7N12D5] | 0.0 | 0.3
20 | CCCCCCCCCCCCCCCNc1nc(NCCCCCCCC)nc(NCCN2CCCC2)n1 [Compound N8N15D3] | 7.6 | 1.5
21 | CCCCCCCCCCCNc1nc(NCCCCCCC)nc(NCCN2CCCC2)n1 [Compound N7N11D3] | 1.3 | 1.0
22 | CCCCCCCCCCCCCCCCNc1nc(NCCCCCCCCC)nc(NCCN(CC)CC)n1 [Compound N9N16D7] | 1.1 | 0.0
23 | CCCCCCCCCCCCCCCNc1nc(NCCCCCCC)nc(NCCN2CCCCC2)n1 [Compound N7N15D4] | 0.0 | 0.2
24 | CCCCCCCCCCCCCCCCNc1nc(NCCCCCCCCCCCC)nc(NCCCN(C)C)n1 [Compound N12N16D6] | 1.9 | 1.9

Row | Structure (SMILES) | Absolute mRNA transfection efficiency in HEK293 cells (HEK293 cells [1]) [%] | Absolute DNA transfection efficiency in HEK293 cells (HEK293 cells [2]) [%]
25 | CCCCCCCCCCCCCCCSc1nc(NCCCN2CCN(C)CC2)nc(SCCCCCCCCCCCCCC)n1 [Compound S14S15D9] | 0.0 | 0.0
26 | CCCCCCCCCCCCCCCCNc1nc(NCCCCCCCCCCCCCCC)nc(NCC2CCN(C)CC2)n1 [Compound N15N16D10] | 0.0 | 1.5
27 | CCCCCCCCCCCNc1nc(NCCCCCCCC)nc(NCCN2CCCCC2)n1 [Compound N8N11D4] | 0.2 | 0.2
28 | CCCCCCCCCCCCNc1nc(NCCCCCCC)nc(NCCCN2CCOCC2)n1 [Compound N7N12D8] | 0.0 | 0.1
29 | CCCCCCCCCCCCCCCCCCNc1nc(NCCCCCC)nc(NCCN2CCN(C)CC2)n1 [Compound N6N18D5] | 0.0 | 0.6
30 | CCCCCCCCCCCCCCCCNc1nc(NCCCCCCCCCCC)nc(NCCN(C)C)n1 [Compound N11N16D1] | 0.6 | 0.4
31 | CCCCCCCCCCCCCCCCNc1nc(NCCCCCC)nc(NCCCN2CCOCC2)n1 [Compound N6N16D8] | 0.0 | 0.6
32 | CCCCCCCCCCCSc1nc(NCCN2CCCCC2)nc(SCCCCCCCCCC)n1 [Compound S10S11D4] | 0.0 | 16.7
33 | CCCCCCCCCCCCCCCNc1nc(NCCCCCCCCCCCCC)nc(NCCN(CC)CC)n1 [Compound N13N15D7] | 3.7 | 0.8
34 | CCCCCCCCCCCCNc1nc(NCCCCCC)nc(NCCN2CCCC2)n1 [Compound N6N12D3] | 0.5 | 0.2
35 | CCCCCCCCCCCCSc1nc(NCCN(CC)CC)nc(SCCCCCCCCCC)n1 [Compound S10S12D7] | 0.0 | 7.2
36 | CCCCCCCCCCCCNc1nc(NCCN2CCOCC2)nc(N(CCCCCCCCCCCC)CCCCCCCCCCCC)n1 [N12^2N12D2] | 0.3 | 0.4
37 | CCCCCCCCCCCCCCCCSc1nc(NCCN2CCCCC2)nc(SCCCCCCCCCC)n1 [Compound S10S16D4] | 0.8 | 9.1
38 | CCCCCCCCCCCCCCCCNc1nc(NCCCCCCCCCCCCCCCC)nc(NCCN2CCCC2)n1 [Compound N16N16D3] | 2.8 | 1.4
39 | CCCCCCCCCNc1nc(NCCCCCCCC)nc(NCCN2CCCCC2)n1 [Compound N8N9D4] | 0.0 | 0.0
40 | CCCCCCCCCCCCCCCCSc1nc(NCCCN(C)C)nc(SCCCCCCCCCCCC)n1 [Compound S12S16D6] | 1.2 | 2.7
41 | CCCCCCCCCCCCNc1nc(NCCCCCCC)nc(NCCN2CCOCC2)n1 [Compound N7N12D2] | 0.0 | 0.0
42 | CCCCCCCCCCCCCCCCCCSc1nc(NCCCN2CCN(C)CC2)nc(SCCCCCCCCCCC)n1 [Compound S11S18D9] | 0.3 | 0.9
43 | CCCCCCCCCCCCCCCNc1nc(NCCCCCCC)nc(NCCN(CC)CC)n1 [Compound N7N15D7] | 0.0 | 0.0
44 | CCCCCCCCCCCNc1nc(NCCCCCCC)nc(NCCCN(C)C)n1 [Compound N7N11D6] | 1.5 | 1.1
45 | CCCCCCCCCSc1nc(NCCN2CCCCC2)nc(SCCCCCCCCC)n1 [Compound S9S9D4] | 2.1 | 14.5
46 | CCCCCCCCCCCCCNc1nc(NCCCCCCCCCCCCC)nc(NCCN(CC)CC)n1 [Compound N13N13D7] | 1.1 | 0.1
47 | CCCCCCCCCCCCCCSc1nc(NCC2CCN(C)CC2)nc(SCCCCCCCCCCC)n1 [Compound S11S14D10] | 38.5 | 58.1
48 | CCCCCCCCCCCCCCCCNc1nc(NCCN(CC)CC)nc(N(CCCCCCCCCCCC)CCCCCCCCCCCC)n1 [N16^2N12D7] | 3.0 | 1.1
